The values that follow are results of earlier work, collected in patent US8691290B2 (priority 2006, dated 2014).

This data set concerns polymorphonuclear leukocytes (PMN) cells. Conditions: S. aureus with various concentrations of PVP-I, 6 hours.

For the substance polyvinylpyrolodone-iodine [PVP-I], the “TNF-α release from PMN cells” value is reported as “released increasing amounts of TNF-α as PVP-I is diluted”.
